One assay has as its target main protease (Severe acute respiratory syndrome coronavirus 2, UniProt P0DTD1). Kind of assay: Dissociation constant (KD) test by fluorescence titration. Conditions: inhibitor titration, intrinsic fluorescence, Scatchard plot. In kind it is binding, SARS-CoV-2.
In another assay the target is SARS-CoV-2 Mpro (Severe acute respiratory syndrome coronavirus 2, UniProt P0DTD1). Put plainly: Mpro protease activity assay (IC50 test, fluorogenic substrate).

By Kd is commonly meant the concentration at which binding is half-saturated. Broadly, the IC50 is the concentration needed to halve the response being measured. A higher IC50 goes with weaker potency in that assay.

Turning to `Cc1ccc(CNC(=O)C2CC(n3cnnn3)CN2Cc2ccc(OCc3ccccc3)cc2)cc1` (stereo not drawn) [CB-25], binding on main protease was characterised by a dissociation constant (Kd) of 10.8 ± 1.32 µM. Also, the IC50 on SARS-CoV-2 Mpro amounted to 22.7 µM.
In turn, `Cc1cc(CNC(=O)Nn2cnc3ccccc32)ccc1F` [CP-1] returned an equilibrium dissociation constant (Kd) on main protease of 5.08 ± 0.38 µM. On SARS-CoV-2 Mpro, the IC50 stood at 18.5 µM.
Regarding `Cc1ccc(C2CC(c3cccs3)=NN2C(=O)CSc2nnc(CNC(=O)c3ccco3)n2-c2cccc(Cl)c2)cc1` (stereo not drawn) [LC24-20], the equilibrium dissociation constant (Kd) at main protease came to 20 ± 1.27 µM. In addition, the IC50 on SARS-CoV-2 Mpro came to 32.9 µM.

Values taken from PMC9967108 (Viruses, 2023).
